Literature values, collected in patent US10813957B2, “Engineered oncolytic viruses containing hyper-binding sites to sequester and suppress activity of oncogenic transcription factors as a novel treatment for human cancer” (priority 2016, dated 2020).

Conditions: background statement

Question: For NC(=O)OC[C@H]1c2c(O)cc(C=O)cc2N2CC3N[C@@H]3[C@]1(O)O2 (stereo partly shown) [FR900482], which toxicity in humans is on record?
Answer: Its toxicity in humans is “high toxicity”.
